Assays:
[1] = cohorts 1-4
From the text: (§1) Healthy subjects receive a single dose of drug at the highest dose studied in the liver-impaired subjects in order to make relative comparison to the PK aspects of Nalbuphine extended release (ER).
(§2) Cohort 1 consists of subjects with impaired hepatic function divided into three groups with some subjects in each of the mild Child-Pugh A category (Group 1), the moderate Child-Pugh B category (Group 2), and the severe Child-Pugh category C (Group 3). Cohort 2-4 consists of subjects with impaired hepatic function divided into two groups with some subjects in each of the mild Child-Pugh A category (Group 1), and the moderate Child-Pugh B category (Group 2).
(§3) Dosing: Subjects receive a single ascending dose, under fasting condition, at the following dose levels:
(§4) Each of the cohorts is dosed sequentially starting with the lowest dose. Subjects with mild or moderate hepatic impairment enrolled in Cohort 1 are optionally enrolled in Cohorts 2, 3, and 4. For each dose cohort, enrollment of subjects with mild or moderate hepatic impairment is done in parallel. An evaluation of safety and tolerability of the combined mild and moderate hepatic impairment subject data is done at each dose level before proceeding to the next dose level.
(§5) Blood: Blood from the patients of each cohort is collected in K2EDTA tubes. The plasma fractions are separated by centrifugation and stored frozen until analysis. Blood samples are collected at the following time points: 0 h (prior to the dose), 1.5, 3, 5, 7, 9, 12, 24, 36, 48, and 72 h after the dose.

[2] = clinical; conditions: human, plasma, oral
From the text: as §1, §2, §3, §4, §5

Compound: Cl.Oc1ccc2c3c1OC1[C@@H](O)CC[C@@]4(O)[C@@H](C2)N(CC2CCC2)CC[C@]314 (stereo partly drawn) [nalbuphine, 17-(cyclobutylmethyl)-4,5α-epoxymorphinian-3, 6α, 14-triol, hydrochloride]
- Half-life across cohorts [1]: similar
- AUC(0-t) ([2]; 27 mg, AUC0-t Mean, 27 mg single dose, Cohort 1, mild hepatic impairment (Child Pugh A)): 48.9 ng·h/mL
- AUC(0-t) ([2]; 27 mg, AUC0-t Mean, 27 mg single dose, Cohort 1, moderate hepatic impairment (Child Pugh B)): 244 ng·h/mL
- AUC(0-t) ([2]; 27 mg, AUC0-t Mean, 27 mg single dose, Cohort 1, severe hepatic impairment (Child Pugh C)): 489 ng·h/mL
- Cmax ([2]; 27 mg, Cmax Mean, 27 mg single dose, Cohort 1, mild hepatic impairment (Child Pugh A)): 3.56 ng/mL
- Cmax ([2]; 27 mg, Cmax Mean, 27 mg single dose, Cohort 1, moderate hepatic impairment (Child Pugh B)): 14.6 ng/mL
- Cmax ([2]; 27 mg, Cmax Mean, 27 mg single dose, Cohort 1, severe hepatic impairment (Child Pugh C)): 28.3 ng/mL
- AUC(0-t) ([2]; 162 mg, mean AUC0-t, 162 mg single dose, Cohort 4, mild hepatic impairment (Child Pugh A)): 375 ng·h/mL
- AUC(0-t) ([2]; 162 mg, mean AUC0-t, 162 mg single dose, Cohort 4, moderate hepatic impairment (Child Pugh B)): 1230 ng·h/mL
- Cmax ([2]; 162 mg, mean Cmax, 162 mg single dose, Cohort 4, mild hepatic impairment (Child Pugh A)): 19.9 ng/mL
- Cmax ([2]; 162 mg, mean Cmax, 162 mg single dose, Cohort 4, moderate hepatic impairment (Child Pugh B)): 65.4 ng/mL

— patent US12274696B2, “Methods of administering nalbuphine” (Trevi Therapeutics, Inc., priority 2020, dated 2025)
